Laboratory results reported in ChEMBL document CHEMBL4004838, “Design and synthesis of novel phenyl -1, 4-beta-carboline-hybrid molecules as potential anticancer agents” (Eur J Med Chem, 2017).

What was measured:
Assay type in all cases: functional
MCF7 = assay: Growth inhibition of human MCF7 cells assessed as cell growth at 1 uM incubated for 48 hrs by sulforhodamine B assay relative to control; conditions: MCF7, 48 h, read-out: Activity
NCI-H460 [1] = assay: Growth inhibition of human NCI-H460 cells assessed as cell growth at 100 uM incubated for 48 hrs by sulforhodamine B assay relative to control; conditions: NCI-H460, 48 h, read-out: Activity
BT-549 = assay: Growth inhibition of human BT549 cells assessed as cell growth at 1 uM incubated for 48 hrs by sulforhodamine B assay relative to control; conditions: BT-549, 48 h, read-out: Activity
SW-620 = assay: Growth inhibition of human SW620 cells assessed as cell growth at 100 uM incubated for 48 hrs by sulforhodamine B assay relative to control; conditions: SW-620, 48 h, read-out: Activity
SF-268 = assay: Growth inhibition of human SF268 cells incubated for 48 hrs by sulforhodamine B assay; conditions: SF-268, 48 h
SK-MEL-28 [2] = assay: Growth inhibition of human SK-MEL-28 cells incubated for 48 hrs by sulforhodamine B assay; conditions: SK-MEL-28, 48 h
LOX IMVI = assay: Growth inhibition of human LOXIMVI cells incubated for 48 hrs by sulforhodamine B assay
786-0 = assay: Growth inhibition of human 786-0 cells incubated for 48 hrs by sulforhodamine B assay; conditions: 786-0, 48 h
OVCAR-4 = assay: Growth inhibition of human OVCAR4 cells assessed as cell growth at 0.1 uM incubated for 48 hrs by sulforhodamine B assay relative to control; conditions: OVCAR-4, 48 h, read-out: Activity
HOP-92 [3] = assay: Growth inhibition of human HOP92 cells assessed as cell growth at 1 uM incubated for 48 hrs by sulforhodamine B assay relative to control; conditions: HOP-92, 48 h, read-out: Activity
HOP-92 [4] = assay: Growth inhibition of human HOP92 cells assessed as cell growth at 0.01 uM incubated for 48 hrs by sulforhodamine B assay relative to control; conditions: HOP-92, 48 h, read-out: Activity
SF-295 = assay: Growth inhibition of human SF295 cells assessed as cell growth at 1 uM incubated for 48 hrs by sulforhodamine B assay relative to control; conditions: SF-295, 48 h, read-out: Activity
SNB-19 = assay: Growth inhibition of human SNB19 cells assessed as cell growth at 1 uM incubated for 48 hrs by sulforhodamine B assay relative to control; conditions: SNB-19, 48 h, read-out: Activity
NCI/ADR-RES = assay: Growth inhibition of human NCI-ADR-RES cells assessed as cell growth at 0.1 uM incubated for 48 hrs by sulforhodamine B assay relative to control; conditions: read-out: Activity
MOLT-4 = assay: Growth inhibition of human MOLT4 cells assessed as cell growth at 1 uM incubated for 48 hrs by sulforhodamine B assay relative to control; conditions: MOLT-4, 48 h, read-out: Activity
U-251 = assay: Growth inhibition of human U251 cells assessed as cell growth at 0.01 uM incubated for 48 hrs by sulforhodamine B assay relative to control; conditions: U-251, 48 h, read-out: Activity
CAKI-1 = assay: Growth inhibition of human Caki1 cells assessed as cell growth at 1 uM incubated for 48 hrs by sulforhodamine B assay relative to control; conditions: CAKI-1, 48 h, read-out: Activity
SK-MEL-28 [5] = assay: Growth inhibition of human SK-MEL-28 cells assessed as cell growth at 0.01 uM incubated for 48 hrs by sulforhodamine B assay relative to control; conditions: SK-MEL-28, 48 h, read-out: Activity
A498 = assay: Growth inhibition of human A498 cells assessed as cell growth at 0.1 uM incubated for 48 hrs by sulforhodamine B assay relative to control; conditions: A498, 48 h, read-out: Activity
UACC-257 = assay: Growth inhibition of human UACC257 cells assessed as cell growth at 100 uM incubated for 48 hrs by sulforhodamine B assay relative to control; conditions: UACC-257, 48 h, read-out: Activity
TK-10 = assay: Growth inhibition of human TK10 cells incubated for 48 hrs by sulforhodamine B assay; conditions: TK-10, 48 h
HL-60(TB) = assay: Growth inhibition of human HL-60(TB) cells assessed as cell growth at 100 uM incubated for 48 hrs by sulforhodamine B assay relative to control; conditions: HL-60, 48 h, read-out: Activity
NCI-H522 = assay: Growth inhibition of human NCI-H522 cells assessed as cell growth at 0.01 uM incubated for 48 hrs by sulforhodamine B assay relative to control; conditions: NCI-H522, 48 h, read-out: Activity
M14 = assay: Growth inhibition of human M14 cells incubated for 48 hrs by sulforhodamine B assay; conditions: M14, 48 h
KM12 = assay: Growth inhibition of human KM12 cells assessed as cell growth at 0.1 uM incubated for 48 hrs by sulforhodamine B assay relative to control; conditions: KM12, 48 h, read-out: Activity
SK-OV-3 = assay: Growth inhibition of human SKOV3 cells assessed as cell growth at 1 uM incubated for 48 hrs by sulforhodamine B assay relative to control; conditions: SK-OV-3, 48 h, read-out: Activity
MDA-MB-435 = assay: Growth inhibition of human MDA-MB-435 cells assessed as cell growth at 0.1 uM incubated for 48 hrs by sulforhodamine B assay relative to control; conditions: MDA-MB-435, 48 h, read-out: Activity
OVCAR-3 = assay: Growth inhibition of human OVCAR3 cells incubated for 48 hrs by sulforhodamine B assay; conditions: OVCAR-3, 48 h
NCI-H460 [6] = assay: Growth inhibition of human NCI-H460 cells assessed as cell growth at 0.01 uM incubated for 48 hrs by sulforhodamine B assay relative to control; conditions: NCI-H460, 48 h, read-out: Activity
[7] = read-out: LC50 (the source's name)
[8] = read-out: pLC50 (the source's name) (converted)

SMILES: c1ccc2c3c([nH]c2c1)C(c1ccc(C2NCCc4c2[nH]c2ccccc42)cc1)NCC3 (racemic)
- growth at 1 µM (MCF7): 22%
- growth at 100 µM (NCI-H460 [1]): 85%
- growth at 1 µM (BT-549): 85%
- growth at 100 µM (SW-620): 87%
- GI50 (SF-268; read-out: GI50): 1.12 µM
- CC50 (SF-268; [7]): 5.89 µM
- TGI (SF-268; read-out: TGI): 2.57 µM
- GI50 (SF-268; read-out: pGI50 (converted)): 1.12 µM
- CC50 (SF-268; [8]): 5.89 µM
- TGI (SF-268; read-out: pTGI (converted)): 2.57 µM
- GI50 (SK-MEL-28 [2]; read-out: GI50): 1.68 µM
- CC50 (SK-MEL-28 [2]; [7]): 5.99 µM
- TGI (SK-MEL-28 [2]; read-out: TGI): 3.18 µM
- GI50 (SK-MEL-28 [2]; read-out: pGI50 (converted)): 1.7 µM
- CC50 (SK-MEL-28 [2]; [8]): 6.03 µM
- TGI (SK-MEL-28 [2]; read-out: pTGI (converted)): 3.16 µM
- GI50 (LOX IMVI; read-out: GI50): 1.96 µM
- CC50 (LOX IMVI; [7]): 1.1 µM
- TGI (LOX IMVI; read-out: TGI): 4.5 µM
- GI50 (LOX IMVI; read-out: pGI50 (converted)): 0.195 µM
- CC50 (LOX IMVI; [8]): 1.1 µM
- TGI (LOX IMVI; read-out: pTGI (converted)): 4.47 µM
- GI50 (786-0; read-out: GI50): 1.74 µM
- CC50 (786-0; [7]): 6.54 µM
- TGI (786-0; read-out: TGI): 3.38 µM
- GI50 (786-0; read-out: pGI50 (converted)): 1.74 µM
- CC50 (786-0; [8]): 6.61 µM
- TGI (786-0; read-out: pTGI (converted)): 3.39 µM
- growth at 0.1 µM (OVCAR-4): 91%
- growth at 1 µM (HOP-92 [3]): 44%
- growth at 0.01 µM (HOP-92 [4]): 86%
- growth at 1 µM (SF-295): 84%
- growth at 1 µM (SNB-19): 88%
- growth at 0.1 µM (NCI/ADR-RES): 93%
- growth at 1 µM (MOLT-4): 13%
- growth at 0.01 µM (U-251): 98%
- growth at 1 µM (CAKI-1): 78%
- growth at 0.01 µM (SK-MEL-28 [5]): 95%
- growth at 0.1 µM (A498): 67%
- growth at 100 µM (UACC-257): 94%
- GI50 (TK-10; read-out: GI50): 1.98 µM
- CC50 (TK-10; [7]): 8.44 µM
- TGI (TK-10; read-out: TGI): 4.09 µM
- GI50 (TK-10; read-out: pGI50 (converted)): 2 µM
- CC50 (TK-10; [8]): 8.51 µM
- TGI (TK-10; read-out: pTGI (converted)): 4.07 µM
- growth at 100 µM (HL-60(TB)): 83%
- growth at 0.01 µM (NCI-H522): 104%
- CC50 (M14; [7]): 4.65 µM
- GI50 (M14; read-out: pGI50 (converted)): 0.407 µM
- CC50 (M14; [8]): 4.68 µM
- TGI (M14; read-out: pTGI (converted)): 1.58 µM
- growth at 0.1 µM (KM12): 95%
- growth at 1 µM (SK-OV-3): 90%
- growth at 0.1 µM (MDA-MB-435): 99%
- GI50 (OVCAR-3; read-out: GI50): 1.24 µM
- CC50 (OVCAR-3; [7]): 5.43 µM
- TGI (OVCAR-3; read-out: TGI): 2.6 µM
- GI50 (OVCAR-3; read-out: pGI50 (converted)): 1.23 µM
- CC50 (OVCAR-3; [8]): 5.5 µM
- TGI (OVCAR-3; read-out: pTGI (converted)): 2.57 µM
- growth at 0.01 µM (NCI-H460 [6]): 105%

SMILES: c1ccc2[nH]c(-c3ccc(-c4nccc5c4[nH]c4ccccc45)cc3)nc2c1
- growth at 1 µM (MCF7): 91%
- growth at 100 µM (NCI-H460 [1]): 38%
- growth at 1 µM (BT-549): 90%
- growth at 100 µM (SW-620): 33%
- GI50 (SF-268; read-out: GI50): 2.89 µM
- CC50 (SF-268; [7]): 8.98 µM
- GI50 (SF-268; read-out: pGI50 (converted)): 2.88 µM
- CC50 (SF-268; [8]): 89.1 µM
- TGI (SF-268; read-out: pTGI (converted)): 10.2 µM
- GI50 (SK-MEL-28 [2]; read-out: GI50): 1.96 µM
- CC50 (SK-MEL-28 [2]; [7]): 7.2 µM
- TGI (SK-MEL-28 [2]; read-out: TGI): 3.75 µM
- GI50 (SK-MEL-28 [2]; read-out: pGI50 (converted)): 1.95 µM
- CC50 (SK-MEL-28 [2]; [8]): 7.24 µM
- TGI (SK-MEL-28 [2]; read-out: pTGI (converted)): 3.72 µM
- GI50 (LOX IMVI; read-out: GI50): 1.67 µM
- TGI (LOX IMVI; read-out: TGI): 3.82 µM
- GI50 (LOX IMVI; read-out: pGI50 (converted)): 1.66 µM
- TGI (LOX IMVI; read-out: pTGI (converted)): 3.8 µM
- GI50 (786-0; read-out: GI50): 2.24 µM
- CC50 (786-0; [7]): 3.83 µM
- TGI (786-0; read-out: TGI): 6.3 µM
- GI50 (786-0; read-out: pGI50 (converted)): 2.24 µM
- CC50 (786-0; [8]): 38 µM
- TGI (786-0; read-out: pTGI (converted)): 6.31 µM
- growth at 0.1 µM (OVCAR-4): 98%
- growth at 1 µM (HOP-92 [3]): 85%
- growth at 0.01 µM (HOP-92 [4]): 85%
- growth at 1 µM (SF-295): 94%
- growth at 1 µM (SNB-19): 88%
- growth at 0.1 µM (NCI/ADR-RES): 98%
- growth at 1 µM (MOLT-4): 93%
- growth at 0.01 µM (U-251): 101%
- growth at 1 µM (CAKI-1): 91%
- growth at 0.01 µM (SK-MEL-28 [5]): 96%
- growth at 0.1 µM (A498): 83%
- growth at 100 µM (UACC-257): 81%
- GI50 (TK-10; read-out: GI50): 2.07 µM
- CC50 (TK-10; [7]): 1.08 µM
- TGI (TK-10; read-out: TGI): 4.59 µM
- GI50 (TK-10; read-out: pGI50 (converted)): 2.09 µM
- CC50 (TK-10; [8]): 10.7 µM
- TGI (TK-10; read-out: pTGI (converted)): 4.57 µM
- growth at 100 µM (HL-60(TB)): 40%
- growth at 0.01 µM (NCI-H522): 91%
- GI50 (M14; read-out: GI50): 1.79 µM
- CC50 (M14; [7]): 7.12 µM
- TGI (M14; read-out: TGI): 3.57 µM
- GI50 (M14; read-out: pGI50 (converted)): 1.78 µM
- CC50 (M14; [8]): 7.08 µM
- TGI (M14; read-out: pTGI (converted)): 3.55 µM
- growth at 0.1 µM (KM12): 96%
- growth at 1 µM (SK-OV-3): 100%
- growth at 0.1 µM (MDA-MB-435): 93%
- GI50 (OVCAR-3; read-out: GI50): 1.8 µM
- CC50 (OVCAR-3; [7]): 7.36 µM
- TGI (OVCAR-3; read-out: TGI): 3.64 µM
- GI50 (OVCAR-3; read-out: pGI50 (converted)): 1.82 µM
- CC50 (OVCAR-3; [8]): 7.41 µM
- TGI (OVCAR-3; read-out: pTGI (converted)): 3.63 µM
- growth at 0.01 µM (NCI-H460 [6]): 107%
